Laboratory results taken from PubChem BioAssay AID248 (DTP/NCI, 2004).
“And” between values parts separate entries of the source, which are not always exact repeats. Identical values can stand only once. Toxic doses and inconclusive results are not listed.

Test system: L1210 leukemia ip in BDF1 mice, survival T/C
Experiment: NCI In Vivo Anticancer Drug Screen. Data for tumor model L1210 Leukemia (intraperitoneal) in B6D2F1 (BDF1) mice
Settings: endpoint: mean survival time, higher = longer survival
Method in brief: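 Read-out is survival time, reported as the treated-group measurement over the vehicle-control measurement.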

[1] = dose: 100.0 mg/kg/injection, schedule: Q01DX009 (ip), vehicle: saline with Tween-80
[2] = dose: 100.0 mg/kg/injection, schedule: Q04DX003 (ip), vehicle: saline with Tween-80
[3] = dose: 200.0 mg/kg/injection, schedule: Q04DX003 (ip), vehicle: saline with Tween-80
[4] = dose: 100.0 mg/kg/injection, schedule: Q01DX001 (ip), vehicle: saline
[5] = dose: 200.0 mg/kg/injection, schedule: Q01DX001 (ip), vehicle: saline
[6] = dose: 400.0 mg/kg/injection, schedule: Q01DX001 (ip), vehicle: saline
[7] = dose: 100.0 mg/kg/injection, schedule: Q01DX001 (ip), vehicle: Klucel (hydroxypropylcellulose) (HPC)
[8] = dose: 200.0 mg/kg/injection, schedule: Q01DX001 (ip), vehicle: Klucel (hydroxypropylcellulose) (HPC)
[9] = dose: 400.0 mg/kg/injection, schedule: Q01DX001 (ip), vehicle: Klucel (hydroxypropylcellulose) (HPC)
[10] = dose: 25.0 mg/kg/injection, schedule: Q01DX009 (ip), vehicle: Klucel (hydroxypropylcellulose) (HPC)
[11] = dose: 50.0 mg/kg/injection, schedule: Q01DX009 (ip), vehicle: Klucel (hydroxypropylcellulose) (HPC)
[12] = dose: 100.0 mg/kg/injection, schedule: Q04DX003 (ip), vehicle: saline
[13] = dose: 75.0 mg/kg/injection, schedule: Q01DX001 (ip), vehicle: carboxymethylcellulose (CMC)

O=C(Nc1ccccc1Cl)c1cccnc1
T/C (dose: 100.0 mg/kg/injection, schedule: Q04DX003 (ip), vehicle: other): 96 % of control
T/C (dose: 200.0 mg/kg/injection, schedule: Q04DX003 (ip), vehicle: other): 97 % of control
T/C (dose: 400.0 mg/kg/injection, schedule: Q04DX003 (ip), vehicle: other): 94 % of control

CCCCC(C=O)(C=C=C(C)C)CC (centres undefined)
T/C [1]: 89 % of control
T/C [2]: 92 % of control
T/C (dose: 200.0 mg/kg/injection, schedule: Q01DX009 (ip), vehicle: saline with Tween-80): 91 % of control
T/C [3]: 93 % of control
T/C (dose: 400.0 mg/kg/injection, schedule: Q01DX009 (ip), vehicle: saline with Tween-80): 89 % of control
T/C (dose: 400.0 mg/kg/injection, schedule: Q04DX003 (ip), vehicle: saline with Tween-80): 98 % of control

O=C(NCCO)Nc1cccc2ccccc12
T/C [4]: 95 % of control
T/C [5]: 95 % of control
T/C [6]: 90 % of control

O=c1[nH]c(/C=C/c2ccccc2)c(S(=O)(=O)N2CCCCC2)c(=O)[nH]1
T/C [7]: 93 % of control
T/C [8]: 87 % of control
T/C [9]: 93 % of control

COc1c(Br)c(-c2ccccc2)nc2ccccc12
T/C [4]: 100 % of control
T/C [5]: 88 % of control
T/C [6]: 92 % of control

O=C(Nc1nccs1)Nc1cccc(Cl)c1Cl
T/C [10]: 106 % of control
T/C [11]: 101 % of control

Cn1cnc([N+](=O)[O-])c1[Se]c1nc(N)nc2c1ncn2C1CC(O)C(CO)O1 (centres undefined)
T/C (dose: 16.5 mg/kg/injection, schedule: Q01DX005 (ip), vehicle: saline): 159 % of control
T/C (dose: 25.0 mg/kg/injection, schedule: Q01DX005 (ip), vehicle: saline): 202 % of control
T/C (dose: 25.0 mg/kg/injection, schedule: Q01DX009 (ip), vehicle: saline): 150 % of control
T/C (dose: 37.5 mg/kg/injection, schedule: Q01DX005 (ip), vehicle: saline): 219 % of control
T/C (dose: 37.5 mg/kg/injection, schedule: Q01DX009 (ip), vehicle: saline): 158 % of control
T/C (dose: 50.0 mg/kg/injection, schedule: Q01DX005 (ip), vehicle: saline): 98 % of control
T/C (dose: 62.5 mg/kg/injection, schedule: Q01DX005 (ip), vehicle: saline): 117 % of control
T/C (dose: 62.5 mg/kg/injection, schedule: Q01DX009 (ip), vehicle: saline): 105 % of control

CCOC(=O)N1C=Cn2c(cnc2C)C1OC (centres undefined)
T/C (dose: 50.0 mg/kg/injection, schedule: Q01DX009 (ip), vehicle: water): 93 % of control
T/C (dose: 100.0 mg/kg/injection, schedule: Q01DX009 (ip), vehicle: water): 98 % of control
T/C (dose: 200.0 mg/kg/injection, schedule: Q01DX009 (ip), vehicle: water): 95 % of control and 86 % of control

CC/C(=N\N=C(N)N)c1ccc(NC(=S)Nc2ccccc2)cc1
T/C (dose: 20.0 mg/kg/injection, schedule: Q01DX009 (ip), vehicle: saline): 101 % of control
T/C (dose: 40.0 mg/kg/injection, schedule: Q01DX009 (ip), vehicle: saline): 101 % of control
T/C (dose: 80.0 mg/kg/injection, schedule: Q01DX009 (ip), vehicle: saline): 107 % of control

CS(=O)(=O)OCCN1C(=O)NC(c2ccccc2)(c2ccccc2)C1=O
T/C [4]: 94 % of control
T/C (dose: 100.0 mg/kg/injection, schedule: Q01DX009 (ip), vehicle: saline): 97 % of control
T/C [12]: 107 % of control
T/C [5]: 94 % of control
T/C (dose: 200.0 mg/kg/injection, schedule: Q01DX009 (ip), vehicle: saline): 96 % of control
T/C (dose: 200.0 mg/kg/injection, schedule: Q04DX003 (ip), vehicle: saline): 93 % of control
T/C [6]: 100 % of control
T/C (dose: 400.0 mg/kg/injection, schedule: Q01DX009 (ip), vehicle: saline): 97 % of control
T/C (dose: 400.0 mg/kg/injection, schedule: Q04DX003 (ip), vehicle: saline): 101 % of control

COC(=O)C(N=Nc1ccc(C)cc1)C(C)=O (centres undefined)
T/C [10]: 97 % of control
T/C [11]: 94 % of control
T/C (dose: 100.0 mg/kg/injection, schedule: Q01DX009 (ip), vehicle: Klucel (hydroxypropylcellulose) (HPC)): 89 % of control

[Br][Hg][c]1ccccc1
T/C [13]: 108 % of control

COC1OC2COc3ccccc3OC2C(NC(N)=S)C1OC (centres undefined)
T/C (dose: 100.0 mg/kg/injection, schedule: Q01DX009 (ip), vehicle: gum acacia): 107 % of control
T/C (dose: 200.0 mg/kg/injection, schedule: Q01DX009 (ip), vehicle: gum acacia): 102 % of control
T/C (dose: 400.0 mg/kg/injection, schedule: Q01DX009 (ip), vehicle: gum acacia): 93 % of control

CN(/N=C/c1ccccn1)C(N)=S
T/C [13]: 96 % of control
T/C (dose: 150.0 mg/kg/injection, schedule: Q01DX001 (ip), vehicle: carboxymethylcellulose (CMC)): 96 % of control
T/C (dose: 300.0 mg/kg/injection, schedule: Q01DX001 (ip), vehicle: carboxymethylcellulose (CMC)): 97 % of control

CC(C)=CCCC(C)CCN(C)C (centres undefined)
T/C (dose: 25.0 mg/kg/injection, schedule: Q04DX003 (ip), vehicle: saline): 96 % of control
T/C (dose: 50.0 mg/kg/injection, schedule: Q04DX003 (ip), vehicle: saline): 97 % of control
T/C [12]: 96 % of control

Cc1cc(/C=C\c2ccc3ccccc3[n+]2C)c(O)c2ncccc12
T/C (dose: 100.0 mg/kg/injection, schedule: Q01DX001 (ip), vehicle: carboxymethylcellulose (CMC)): 110 % of control
T/C (dose: 200.0 mg/kg/injection, schedule: Q01DX001 (ip), vehicle: carboxymethylcellulose (CMC)): 93 % of control

N#C[CH2][Sn]([I])([c]1ccccc1)[c]1ccccc1
T/C (dose: 12.5 mg/kg/injection, schedule: Q04DX002 (ip), vehicle: saline with Tween-80): 100 % of control
T/C (dose: 25.0 mg/kg/injection, schedule: Q04DX002 (ip), vehicle: saline with Tween-80): 107 % of control
T/C (dose: 50.0 mg/kg/injection, schedule: Q04DX002 (ip), vehicle: saline with Tween-80): 91 % of control

O=C(COc1cc(Cl)c(Cl)cc1Cl)Nc1ccc([N+](=O)[O-])cc1Cl
T/C (dose: 100.0 mg/kg/injection, schedule: Q04DX002 (ip), vehicle: saline with Tween-80): 102 % of control
T/C (dose: 200.0 mg/kg/injection, schedule: Q04DX002 (ip), vehicle: saline with Tween-80): 109 % of control
T/C (dose: 400.0 mg/kg/injection, schedule: Q04DX002 (ip), vehicle: saline with Tween-80): 98 % of control

CN(C)c1ncnc2c1ncn2Cc1ccccc1
T/C (dose: 100.0 mg/kg/injection, schedule: Q01DX001 (ip), vehicle: saline with Tween-80): 92 % of control
T/C (dose: 200.0 mg/kg/injection, schedule: Q01DX001 (ip), vehicle: saline with Tween-80): 96 % of control

Cc1ccc([Si](O)(c2ccc(C)cc2)c2ccc(C)cc2)cc1
T/C (dose: 100.0 mg/kg/injection, schedule: Q01DX001 (ip), vehicle: other): 97 % of control
T/C (dose: 200.0 mg/kg/injection, schedule: Q01DX001 (ip), vehicle: other): 97 % of control
T/C (dose: 400.0 mg/kg/injection, schedule: Q01DX001 (ip), vehicle: other): 100 % of control

COC(=O)/C(Cl)=C(\Cl)C(=O)OC
T/C [1]: 95 % of control
T/C (dose: 100.0 mg/kg/injection, schedule: Q04DX003 (ip), vehicle: Klucel (hydroxypropylcellulose) (HPC)): 96 % of control
T/C [2]: 102 % of control
T/C [3]: 107 % of control

CCCCNc1nc(N)nc2c1nnn2C1OC(CO)C(O)C1O (centres undefined)
T/C [4]: 107 % of control
T/C [5]: 101 % of control
T/C [6]: 107 % of control

O=C(CCCC(=O)NNC(=S)Nc1ccccc1)NNC(=S)Nc1ccccc1
T/C (dose: 50.0 mg/kg/injection, schedule: Q01DX001 (ip), vehicle: saline): 100 % of control
T/C [4]: 100 % of control
T/C [5]: 97 % of control
T/C [6]: 100 % of control

O=NN(CCCl)C(=O)NC(Cc1ccccc1)C(=O)O (centres undefined)
T/C (dose: 12.0 mg/kg/injection, schedule: Q01DX001 (ip), vehicle: gum acacia): 118 % of control
T/C (dose: 28.0 mg/kg/injection, schedule: Q01DX001 (ip), vehicle: gum acacia): 188 % of control
T/C (dose: 42.0 mg/kg/injection, schedule: Q01DX001 (ip), vehicle: gum acacia): 195 % of control
T/C (dose: 63.0 mg/kg/injection, schedule: Q01DX001 (ip), vehicle: gum acacia): 256 % of control
T/C (dose: 112.0 mg/kg/injection, schedule: Q01DX001 (ip), vehicle: gum acacia): 163 % of control
T/C (dose: 168.0 mg/kg/injection, schedule: Q01DX001 (ip), vehicle: gum acacia): 120 % of control

C=C(C)COc1c(C)c(C)c(OS(=O)(=O)c2ccc(Br)cc2)c(C)c1C
T/C [7]: 97 % of control
T/C [8]: 89 % of control
T/C [9]: 100 % of control
